Molecules are shown by their SMILES.

One assay deals with T1, mPGES-1 Mouse enzyme (Mus musculus, UniProt Q9JM51).
T1 construct: made in house; host or cells: FreeStyle 293-F cells, crude microsomal preparation
T1 sequence (Q9JM51 1-153): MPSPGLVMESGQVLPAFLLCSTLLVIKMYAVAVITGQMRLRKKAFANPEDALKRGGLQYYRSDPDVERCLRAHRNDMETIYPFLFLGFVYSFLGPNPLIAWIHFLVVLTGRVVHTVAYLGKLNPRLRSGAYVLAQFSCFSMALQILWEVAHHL
The experiment in a line: mPGES-1 enzyme activity assay (PGE2 enzyme immunoassay), mouse enzyme. The conditions noted are these: IC50 against mPGES-1, Mouse enzyme, recombinant microsomal enzyme; means ± SD, triplicate. The format is biochemical. As to the method: (§1) Studies were conducted to characterize the inhibitory activity against recombinant mPGES-1 of the compounds synthesized in accordance with Examples 1-4, and disclosed herein.
(§2) Briefly, FreeStyle 293-F cells were cultured following manufacturer's manual in FreeStyle 293 expression medium on orbit rotate shaker in 8% CO2 incubator at 37° C. Cells were transfected with 1.5 μg/mL of mPGES-1/pcDNA3 construct using FreeStyle Max reagent at a cell density of 1×10^6 for 2 days. Transfected cells were collected, washed, and sonicated in TSES buffer (15 mM Tris-HCl, pH 8.0 plus 0.25 M sucrose, 0.1 mM EDTA and 1 mM DTT) on ice. The broken cells were first centrifuged at 12,500×g for 10 min. The supernatant was further centrifuged at 105,000×g for 1 hr at 4° C. The pellet was washed and homogenized in PBS buffer. The crude microsomal mPGES-1 preparation was aliquoted and stored at −80° C. The crude protein concentration was 8 mg/mL.
(§3) The enzyme activity assays were performed on ice in 1.5 ml microfuge tubes by using the expressed mPGES-1. The reaction mixture contained: 0.2 M Na2HPO4/NaH2PO4, pH 7.2, 10 μL; 0.1 M GSH, 2.5 μL; diluted microsomal enzyme (80 μg/mL), 1 μL; PGH2 (0.31 mM in DMF), 5 μL; 1 μL inhibitor; and H2O in a final reaction volume of 100 μL. PGH2 was stored in dry ice and used to initiate the reaction.
(§4) Compounds were incubated with the enzyme for 15 min at room temperature before the addition of cold PGH2 (1 μM final) to initiate the enzyme reaction. After 30 s, 10 μL of SnCl2 (40 mg/mL) in ethanol was added to stop the reaction. The nonenzymatic conversion of PGH2 to PGE2 was performed in the same buffer devoid of enzyme. The reaction mixture was placed on ice until PGE2 production was determined by the PGE2 enzyme immunoassay as described earlier. IC50 values of the inhibitors were calculated by using the GraphPad Prism 4.0 program. The results are set forth in the tables provided in Examples 7-10.
For orientation: IC50 means the point on the concentration scale where inhibition reaches its midpoint. As to `COc1cc(C=C2C(=O)NC(=O)NC2=O)cc(I)c1OCCCCC1CCCCC1` [Compound I-11], the IC50 turned out to be 359 ± 50 nM.

Take `O=C1NC(=O)C(=Cc2ccc(OCCCCC3CCCCC3)c3ccccc23)C(=O)N1` [Compound I-17]: the IC50 is 3700 ± 562 nM. As to `CCCCOc1ccc(-c2nn(-c3ccc(Cl)cc3)cc2C=C2C(=O)NC(=O)NC2=O)cc1` [VI-03], the IC50 was 357 ± 75 nM.

As for `O=C1NC(=O)C(Cc2ccc(OCCCCC3CCCCC3)c([N+](=O)[O-])c2)C(=O)N1` [Compound I-44], the IC50 was 3350 ± 560 nM. Same read-out and setting: then `CCCCCCCCOc1ccc(-c2nn(-c3ccccc3)cc2C=C2C(=O)NC(=O)NC2=O)cc1` [VI-05], with 2160 ± 188 nM; and `O=C1NC(=O)C(=Cc2ccc(OCCCOc3ccccc3)c(Cl)c2)C(=O)N1` [Compound I-34], with 8130 ± 1010 nM. Same read-out and setting: the result for `O=C1NC(=O)C(=Cc2ccc(OCCCCC3CCCCC3)cc2)C(=O)N1` [Compound I-01] reads 7080 ± 627 nM; that for `COc1cc(C=C2C(=O)NC(=O)NC2=O)cc(Cl)c1OCCCCC1CCCCC1` [Compound I-09], 360 ± 56 nM.

The assay is the same for the next values; noted with them: compound at a concentration of 10 μM; read-out: % inhibition of the compound against mPGES-1, Mouse enzyme.
As usually defined, the inhibition is the drop in the measured response relative to a control, in per cent. Regarding `CN1C(=O)C(=Cc2ccc(OCCCC3CCCCC3)c(Br)c2)C(=O)N(C)C1=O` [Compound I-28], the inhibition at 10 µM turned out to be 30%.

As for `CCOc1ccc(-c2nn(-c3ccc(Cl)cc3)cc2/C=C2\SC(=O)N(CC(=O)O)C2=O)cc1` [VII-10], the inhibition at 10 µM is 35%. Same read-out and setting: then `CCCCCCOc1ccc(-c2nn(-c3ccc(Cl)cc3)cc2/C=C(/C#N)C(=O)O)cc1` [VII-15], with 48%; and `CCOc1ccc(-c2nn(-c3ccc(Cl)cc3)cc2C=C2C(=O)NC(=O)NC2=O)cc1` [VI-01], with 28%; and `CN1C(=O)C(=Cc2ccc(OCCCCC3CCCCC3)c(Cl)c2)C(=O)N(C)C1=O` [Compound I-18], with 8%. The same measure, in the same setting: the result for `CCCCCCCCCCOc1ccc(-c2nn(-c3ccc(Cl)cc3)cc2C=C2C(=O)NC(=O)NC2=O)cc1` [VI-08] reads 24%. Same read-out and setting: then `CCOc1ccc(-c2nn(-c3ccc(Cl)cc3)cc2/C=C(/C#N)C(=O)O)cc1` [VII-12], with 12%. Turning to `CN1C(=O)C(=Cc2ccc(OCCCCC3CCCCC3)c(Br)c2)C(=O)N(C)C1=O` [Compound I-19], the inhibition at 10 µM came out at 24%. Same read-out and setting: the result for `O=C(O)CN1C(=O)/C(=C2\SC(=O)N(CCCCC3CCCCC3)C2=O)c2ccccc21` [II-32] reads 44%. Same read-out and setting: then `O=C(O)CN1C(=O)/C(=C2\SC(=O)N(CCCCc3ccccc3)C2=O)c2ccccc21` [II-31], with 64%.

The assay is the same for the next values; noted with them: recombinant microsomal enzyme; means ± SD, triplicate; read-out: IC50 against mPGES-1, Mouse enzyme.
`O=C(O)CN1C(=O)S/C(=C2\C(=O)N(CCCc3ccccc3)c3ccccc32)C1=O` [II-04]: the IC50 was determined as 747 ± 163 nM. For the compound `CCCCCCCOc1ccc(C=C(C#N)C#N)cc1OC` [Compound V-35], the IC50 was 7290 ± 2550 nM. The same measure, in the same setting: the result for `CCCCCCCCOc1c(Br)cc(C=C(C#N)C#N)cc1OC` [Compound V-18] reads 572 ± 83 nM.

The next assay addresses T2, mPGES-1 (Homo sapiens, UniProt O14684).
T2 sequence (O14684 1-152): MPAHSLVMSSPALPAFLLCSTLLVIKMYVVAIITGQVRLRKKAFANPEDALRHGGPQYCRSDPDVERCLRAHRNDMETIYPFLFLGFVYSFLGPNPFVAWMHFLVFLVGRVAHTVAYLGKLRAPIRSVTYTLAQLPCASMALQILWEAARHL
The experiment in a line: mPGES-1 enzyme activity assay (PGE2 enzyme immunoassay), human enzyme. The class given is biochemical. Also noted: made in house; host or cells: FreeStyle 293-F cells, crude microsomal preparation. To be noted: IC50 against mPGES-1, Human enzyme, recombinant microsomal enzyme; means ± SD, triplicate. As to the method:
as §1, §2, §3, §4
`CN1C(=O)C(=Cc2ccc(OCCCC3CCCCC3)c(Br)c2)C(=O)N(C)C1=O` [Compound I-28]: the IC50 amounted to 127 ± 14 nM. Same read-out and setting: the result for `COc1cc(C=C2C(=O)NC(=O)NC2=O)cc(I)c1OCCCCC1CCCCC1` [Compound I-11] reads 54 ± 12 nM; that for `O=C1NC(=O)C(=Cc2ccc(OCCCCC3CCCCC3)c3ccccc23)C(=O)N1` [Compound I-17], 171 ± 34 nM; that for `O=C1NC(=O)C(Cc2ccc(OCCCCC3CCCCC3)c([N+](=O)[O-])c2)C(=O)N1` [Compound I-44], 136 ± 23 nM. Still for that read-out and setting: the result for `CCCCCCCCOc1ccc(-c2nn(-c3ccccc3)cc2C=C2C(=O)NC(=O)NC2=O)cc1` [VI-05] reads 323 ± 52 nM. Still for that read-out and setting: then `CN1C(=O)C(=Cc2ccc(OCCCCC3CCCCC3)c(Cl)c2)C(=O)N(C)C1=O` [Compound I-18], with 272 ± 30 nM; and `O=C1NC(=O)C(=Cc2ccc(OCCCOc3ccccc3)c(Cl)c2)C(=O)N1` [Compound I-34], with 349 ± 40 nM; and `CN1C(=O)C(=Cc2ccc(OCCCCC3CCCCC3)c(Br)c2)C(=O)N(C)C1=O` [Compound I-19], with 427 ± 55 nM. Consider `COc1cc(C=C2C(=O)NC(=O)NC2=O)cc(Cl)c1OCCCCC1CCCCC1` [Compound I-09], for which the IC50 was found to be 22 ± 7 nM.

Staying with this assay, now noted: recombinant microsomal enzyme; means ± SD, triplicate; read-out: IC50 against mPGES-1, Human enzyme.
`CCOc1ccc(-c2nn(-c3ccc(Cl)cc3)cc2/C=C2\SC(=O)N(CC(=O)O)C2=O)cc1` [VII-10]: the IC50 was 41 ± 5 nM. On the same count and under the same terms, then `CCCCOc1ccc(-c2nn(-c3ccc(Cl)cc3)cc2C=C2C(=O)NC(=O)NC2=O)cc1` [VI-03], with 169 ± 41 nM; and `O=C(O)CN1C(=O)S/C(=C2\C(=O)N(CCCc3ccccc3)c3ccccc32)C1=O` [II-04], with 2400 ± 132 nM. On the same count and under the same terms, the result for `CCCCCCOc1ccc(-c2nn(-c3ccc(Cl)cc3)cc2/C=C(/C#N)C(=O)O)cc1` [VII-15] reads 83 ± 30 nM. The same measure, in the same setting: then `CCOc1ccc(-c2nn(-c3ccc(Cl)cc3)cc2C=C2C(=O)NC(=O)NC2=O)cc1` [VI-01], with 265 ± 96 nM. Take `CCCCCCCOc1ccc(C=C(C#N)C#N)cc1OC` [Compound V-35]: the half-maximal inhibitory concentration (IC50) worked out at 256 ± 33 nM.

Consider `CCCCCCCCCCOc1ccc(-c2nn(-c3ccc(Cl)cc3)cc2C=C2C(=O)NC(=O)NC2=O)cc1` [VI-08], for which the 50% inhibitory concentration (IC50) stood at 294 ± 83 nM. Still for that read-out and setting: then `CCOc1ccc(-c2nn(-c3ccc(Cl)cc3)cc2/C=C(/C#N)C(=O)O)cc1` [VII-12], with 282 ± 83 nM; and `O=C1NC(=O)C(=Cc2ccc(OCCCCC3CCCCC3)cc2)C(=O)N1` [Compound I-01], with 622 ± 121 nM; and `CCCCCCCCOc1c(Br)cc(C=C(C#N)C#N)cc1OC` [Compound V-18], with 74 ± 8 nM.

Take `O=C(O)CN1C(=O)/C(=C2\SC(=O)N(CCCCC3CCCCC3)C2=O)c2ccccc21` [II-32]: the IC50 was determined as 2560 ± 442 nM.

For the compound `O=C(O)CN1C(=O)/C(=C2\SC(=O)N(CCCCc3ccccc3)C2=O)c2ccccc21` [II-31], the IC50 came out at 962 ± 159 nM. On the same count and under the same terms, then `CCOc1ccc(-c2nn(-c3ccc(Cl)cc3)cc2/C=C2\SC(=S)NC2=O)cc1` [VII-08], with 1040 ± 293 nM; and `CCCCCCOc1c(Br)cc(/C=C(\C#N)C(=O)OCC)cc1OC` [Compound V-12], with 998 ± 196 nM; and `CCCCCCOc1ccc(/C=C(\C#N)C(=O)OCC)cc1` [Compound V-08], with 5240 ± 429 nM.

For the origin of these results see patent publication US12030877B2, “Prostaglandin E synthase inhibitors and methods for utilizing the same” (University of Kentucky Research Foundation, priority 2016, dated 2024).
